This is an account of results in patent US12091385B2, “Pyridinylcyanoguanidine derivative and use thereof” (Rushi Biotech (Hangzhou) Co., Ltd, priority 2021, dated 2024).

Structures are written as SMILES.

What is called IC50 is the concentration that gives 50% inhibition. A lower IC50 goes with inhibition by little substance.

Common to all, as to format: cell-based
Test [1] relates to Human esophageal cancer cell TE-1. As to the kind of experiment: CCK-8 cell proliferation assay, TE-1. As to conditions: TE-1 cells, 72 hrs with drug, CCK-8, OD 450 nm. How it is done: (§1) The effect of samples on the proliferation of human tumor cells in vitro was determined by CCK-8 cell proliferation assay.
(§2) The cells were assayed through a method including the following steps: • 1) The cells were digested, counted, and prepared into a cell suspension in a corresponding culture medium (Table 1) (5×10^4 cells/ml for CFPAC-1 and RPMI 8226, and 3.5×10^4 cells/ml for rest cells). The cell suspension was added to each well of a 96-well plate in 100 μl/well. • 2) Then the 96-well plate was incubated for 24 hrs in an incubator at 37° C. and 5% CO2. • 3) The drug was diluted with the culture medium to the required working concentration. 100 μl of the corresponding drug containing medium was added to each well.
A general note: Tetrazolium dyes change colour on reduction, which living cells bring about.

For test [2], the system named is Human colon cancer cell HCT-116. The test can be described thus: CCK-8 cell proliferation assay, HCT-116. To be noted: HCT116 cells, 72 hrs with drug, CCK-8, OD 450 nm. On the procedure: as §1, §2
Test [3] has as its system Human hepatoma cell HepG2. As to the kind of experiment: CCK-8 cell proliferation assay, HepG2. To be noted: HepG2 cells, 72 hrs with drug, CCK-8, OD 450 nm. How it is done: as §1, §2
Test [4] deals with Human multiple myeloma cell RPMI 8226. As to the kind of experiment: CCK-8 cell proliferation assay, RPMI 8226. As to conditions: RPMI8226 cells, 72 hrs with drug, CCK-8, OD 450 nm. On the procedure: as §1, §2
Test [5] concerns Human lung adenocarcinoma cell A549. As to the kind of experiment: CCK-8 cell proliferation assay, A549. To be noted: A549 cells, 72 hrs with drug, CCK-8, OD 450 nm. How it is done:
as §1, §2

For test [6], the system named is Human gastric cancer cell MKN45. As to the kind of experiment: CCK-8 cell proliferation assay, MKN45. To be noted: MKN-45 cells, 72 hrs with drug, CCK-8, OD 450 nm. How it is done: as §1, §2
Test [7] has as its system Human pancreatic cancer cell CFPAC-1. As to the kind of experiment: CCK-8 cell proliferation assay, CFPAC-1. As to conditions: CFPAC-1 cells, 72 hrs with drug, CCK-8, OD 450 nm. How it is done:
as §1, §2

Regarding `N#CN=C(NCCCCCCC1CCN(C(=O)c2ccco2)C1)Nc1ccncc1` (stereo not shown) [BSS-PC057, 2-cyano-1-(6-(1-(furoyl)pyrrolidine-3-yl)hexyl)-3-(4-pyridinyl)guanidine], the IC50 in test [1] was 60 nM; in test [2], 69 nM; in test [3], 64 nM; in test [4] it was 51 nM; in test [5], 53 nM; in test [6], 31 nM. The compound also returned an IC50 in test [7] of 37 nM.
For the compound `N#CN=C(NCCCCCN1CCN(C(=O)c2ccco2)CC1)Nc1cccnc1` [BSS-PC026, 2-cyano-1-(5-((1-furoyl)piperazine-4-yl)pentyl)-3-(3-pyridinyl)guanidine], the IC50 in test [1] came to 72 nM; in test [2], 73 nM; in test [3] it was 55 nM; in test [4] it was 20 nM; in test [5], 32 nM; in test [6] it was 30 nM. In test [7], this compound had an IC50 of 31 nM.
As to `N#CN=C(NCCCCCN1CCN(C(=O)C2Cc3ccccc3O2)CC1)Nc1ccncc1` (stereo not shown) [BSS-PC021, 2-cyano-1-(5-(1-(2-benzotetrahydrofurylfuryl)piperazine-4-yl)pentyl)-3-(4-pyridinyl)guanidine], the IC50 was determined as 118 nM in test [1]; 106 nM in test [2]; 93 nM in test [3]; 49 nM in test [4]; 79 nM in test [5]; 65 nM in test [6]. In test [7], this compound had an IC50 of 55 nM.
Regarding `N#CN=C(NCCCCCN1CCN(C(=O)c2cc3ccccc3o2)CC1)Nc1ccncc1` [BSS-PC022, 2-cyano-1-(5-(1-(2-benzofurylformyl)piperazine-4-yl)pentyl)-3-(4-pyridinyl)guanidine], the IC50 is 83 nM in test [1]; 81 nM in test [2]; 88 nM in test [3]; 52 nM in test [4]; 70 nM in test [5]; 65 nM in test [6]. The compound also gave a half-inhibitory concentration (IC50) in test [7] of 59 nM.
`COc1cccc(OC)c1C(=O)N1CCC(CCCCCNC(=NC#N)Nc2ccncc2)C1` (stereo not shown) [BSS-PC031, 2-cyano-1-(5-(1-(2,6-dimethoxybenzoyl)pyrrolidine-3-yl)pentyl)-3-(4-pyridinyl)guanidine]: the IC50 was 94 nM in test [1]; 49 nM in test [2]; 109 nM in test [3]; 23 nM in test [4]; 42 nM in test [5]; 37 nM in test [6]. In test [7], the IC50 was determined as 27 nM.
Take `N#CN=C(NCCCCCN1CCN(C(=O)c2occc2F)CC1)Nc1ccncc1` [BSS-PC023, 2-cyano-1-(5-(1-(3-fluoro-2-furylformyl)piperazine-4-yl)pentyl)-3-(4-pyridinyl)guanidine]: the IC50 in test [1] came to 43 nM; in test [2], 52 nM; in test [3] it was 57 nM; in test [4] it was 30 nM; in test [5], 42 nM; in test [6], 430 nM. In test [7], the 50% inhibitory concentration (IC50) was 39 nM.
Turning to `N#CN=C(NCCCCCC1CCN(C(=O)c2ccco2)C1)Nc1cccnc1` (stereo not shown) [BSS-PC051], the 50% inhibitory concentration (IC50) in test [1] is 40 nM; in test [2] it was 39 nM; in test [3] it was 42 nM; in test [4] it was 27 nM; in test [5] it was 51 nM; in test [6], 31 nM. In addition, in test [7], the IC50 was 33 nM.
Take `N#CN=C(NCCCCCN1CCN(C(=O)c2cccs2)CC1)Nc1ccncc1` [BSS-PC004, 2-cyano-1-(5-(1-(2-thienylformyl)piperazine-4-yl)pentyl)-3-(4-pyridinyl)guanidine]: the IC50 was 95 nM in test [1]; 66 nM in test [2]; 82 nM in test [3]; 34 nM in test [4]; 35 nM in test [5]; 43 nM in test [6]. The IC50 in test [7] was 25 nM.
Regarding `N#CN=C(NCCCCCCC1CCN(C(=O)c2ccco2)C1)Nc1cc(Cl)nc(Cl)c1` (stereo not shown) [BSS-PC080], the half-maximal inhibitory concentration (IC50) was determined as 62 nM in test [1]; 75 nM in test [2]; 83 nM in test [3]; 42 nM in test [4]; 66 nM in test [5]; 64 nM in test [6]. In test [7], this compound came in with an IC50 of 51 nM.
In the case of `N#CN=C(NCCCCCC1CCN(C(=O)c2ccc[nH]2)C1)Nc1ccncc1` (stereo not shown) [BSS-PC033, 2-cyano-1-(5-(1-(2-pyrrolylformyl)pyrrolidine-3-yl)pentyl)-3-(4-pyridinyl)guanidine], the IC50 was determined as 67 nM in test [1]; 42 nM in test [2]; 76 nM in test [3]; 17 nM in test [4]; 51 nM in test [5]; 33 nM in test [6]. This compound also gave an IC50 in test [7] of 29 nM.
Regarding `N#CN=C(NCCCCCCC1CCN(C(=O)c2cccs2)C1)Nc1ccncc1` (stereo not shown) [BSS-PC053, 2-cyano-1-(6-(1-(2-thienylformyl)pyrrolidine-3-yl)hexyl)-3-(4-pyridinyl)guanidine], the IC50 in test [1] stood at 30 nM; in test [2], 43 nM; in test [3], 31 nM; in test [4], 22 nM; in test [5], 25 nM; in test [6], 34 nM. For the same compound, the IC50 in test [7] was determined as 22 nM.
With `N#CN=C(NCCCCCN1CCN(C(=O)c2ccc[nH]2)CC1)Nc1ccncc1` [BSS-PC008, 2-cyano-1-(5-(1-(2-pyrrolylformyl)piperazine-4-yl)pentyl)-3-(4-pyridinyl)guanidine], the IC50 turned out to be 107 nM in test [1]; 89 nM in test [2]; 101 nM in test [3]; 38 nM in test [4]; 55 nM in test [5]; 59 nM in test [6]. The compound further gave an IC50 in test [7] of 51 nM.
On to `N#CN=C(NCCCCCCC1CCN(C(=O)C2CCCS2)C1)Nc1ccncc1` (stereo not shown) [BSS-PC058, 2-cyano-1-(6-(1-(2-tetrahydrothienylformyl)pyrrolidine-3-yl)hexyl)-3-(4-pyridinyl)guanidine], for which the IC50 was 71 nM in test [1]; 82 nM in test [2]; 75 nM in test [3]; 43 nM in test [4]; 42 nM in test [5]; 69 nM in test [6]. The same compound showed an IC50 in test [7] of 52 nM.
On to `N#CN=C(NCCCCCC1CCN(C(=O)c2sccc2F)C1)Nc1ccncc1` (stereo not shown) [BSS-PC050, 2-cyano-1-(5-(1-(3-fluoro-2-thienylformyl)pyrrolidine-3-yl)pentyl)-3-(4-pyridinyl)guanidine], for which the IC50 in test [1] came out at 52 nM; in test [2], 87 nM; in test [3], 68 nM; in test [4], 32 nM; in test [5], 39 nM; in test [6] it was 33 nM. This compound also had an IC50 in test [7] of 41 nM.
Regarding `N#CN=C(NCCCCCC1CCN(C(=O)C2CCCS2)C1)Nc1ccncc1` (stereo not shown) [BSS-PC034, 2-cyano-1-(5-(1-(2-tetrahydrothienylformyl)pyrrolidine-3-yl)pentyl)-3-(4-pyridinyl)guanidine], the IC50 in test [1] worked out at 39 nM; in test [2], 27 nM; in test [3], 37 nM; in test [4], 18 nM; in test [5], 23 nM; in test [6] it was 31 nM. In test [7], the IC50 was 23 nM.
As to `N#CN=C(NCCCCCCC1CCN(C(=O)c2ccccc2)C1)Nc1cccnc1` (stereo not shown) [BSS-PC059, 2-cyano-1-(6-((1-benzoyl)pyrrolidine-3-yl)hexyl)-3-(3-pyridinyl)guanidine], the IC50 in test [1] was found to be 99 nM; in test [2], 86 nM; in test [3] it was 92 nM; in test [4] it was 35 nM; in test [5], 43 nM; in test [6], 47 nM. The compound further gave an IC50 in test [7] of 46 nM.
For `N#CN=C(NCCCCCN1CCN(C(=O)c2[nH]ccc2F)CC1)Nc1ccncc1` [BSS-PC024, 2-cyano-1-(5-(1-(3-fluoro-2-pyrrolylformyl)piperazine-4-yl)pentyl)-3-(4-pyridinyl)guanidine], the IC50 in test [1] was 49 nM; in test [2] it was 50 nM; in test [3], 51 nM; in test [4] it was 21 nM; in test [5] it was 53 nM; in test [6], 41 nM. For the same compound, 37 nM corresponded to half-maximal inhibition in test [7] (IC50).
For the compound `N#CN=C(NCCCCCN1CCN(C(=O)c2cc3ccccc3[nH]2)CC1)Nc1ccncc1` [BSS-PC020, 2-cyano-1-(5-(1-(2-indolylformyl)piperazine-4-yl)pentyl)-3-(4-pyridinyl)guanidine], the IC50 stood at 93 nM in test [1]; 85 nM in test [2]; 72 nM in test [3]; 35 nM in test [4]; 61 nM in test [5]; 51 nM in test [6]. In test [7], this compound displayed an IC50 of 57 nM.
On to `N#CN=C(NCCCCCC1CCN(C(=O)c2ccco2)C1)Nc1ccncc1` (stereo not shown) [BSS-PC032, 2-cyano-1-(5-(1-(furoyl)pyrrolidine-3-yl)pentyl)-3-(4-pyridinyl)guanidine], for which the IC50 was determined as 57 nM in test [1]; 52 nM in test [2]; 68 nM in test [3]; 29 nM in test [4]; 26 nM in test [5]; 61 nM in test [6]. This compound registered a half-maximal inhibitory concentration (IC50) in test [7] of 25 nM.
